Reference: US20130089912A1, “METHODS AND COMPOSITIONS FOR THE STABILIZATION OF BIOLOGIC MATERIAL” (priority 2011, published 2013)
Several values for one entry are separate records, joined by “and”; a condition that tells them apart may be missing. Equal values may be shown once. Where a name gives a salt, the structure may show the parent alone. Read-outs that look alike come from different tables or passages of the source.

Assays:
[1] = test system: mouse macrophage cell line; conditions: cited from earlier work; for Log EC50: logarithm of EC50 in uM, matches the EC50 values of Weaver et al. (2010)
[2] = Differential scanning calorimetry of DPPC unilamellar vesicles mixed with test compound (screening assay for toxic membrane interactions)
[3] = choline salt of the named anion
[4] = cellular toxicity, values reproduced from Weaver et al. (2010)
[5] = 10 mM compound, DPPC liposomes, HEPES buffer pH 7.40
[6] = 10 mM compound, DPPC liposomes, HEPES buffer pH 7.40, scan 20 to 50° C., equilibrium scans
[7] = 10 mM compound, DPPC liposomes, HEPES buffer pH 7.40, NR = not resolvable
[8] = 10 mM compound, compared to DPPC control scan from same LUV batch solution
[9] = choline salt 10 mM, DPPC vesicle assay, Table 2
[10] = 10 mM compound, initial heating scan

Compound | EC50 [1, 4] | Effect on DPPC main gel-liquid crystal phase transition (in words) ([2]; 10 mM compound) | Main Transition ΔH [2, 5] [kcal/mol] | Main Transition ΔT(1/2) [2, 5] [°C] | Main Transition Tm [2, 6] | Pretransition ΔH [2, 7] [kcal/mol] | Change in Main Transition ΔTm [2, 8] | Change in Main Transition ΔΔH [2, 8] | Change in Main Transition ΔΔT(1/2) [2, 8] | Change in Pretransition ΔH [2, 8] [%] | Δ Tm [2, 9] | ΔΔ H [2, 9] | ΔΔ T(1/2) [2, 9] [C] | other results
2-hydroxyethyl(trimethyl)azanium dibutyl phosphate [CDBP] | 9 mM and 9.1 mM | no statistically significant effect | 7.831 | 1.50 | 41.05 °C | 0.44 | −0.5% | +2% | −6% | −20 |  |  |  | 
choline lactate |  | a moderate increase in Tm and a moderate decrease in enthalpy |  |  |  |  |  |  |  |  | +0.37 C | −480 cal/mole/ C | −0.06 | Log Pow [3]: −1.73
2-hydroxyethyl(trimethyl)azanium bis(2,4,4-trimethylpentyl)phosphinate [CTMP] | < 0.25 mM | large decrease in Tm and enthalpy, and increased cooperativity | 3.58 | 1.48 | 32.6 °C and 33 °C and 32.58 °C |  | −21% | −52% | −17% | −100 | −8.08 C | −2011 cal/mole/ C | −0.37 | Log EC50 [1]: 2.39 uM; Log Pow [3]: 3.60; Decrease of peak width (ΔΔT1/2) compared to control lipid vesicles ([2]; 10 mM compound): 17%; Reduction of main transition Tm compared to DPPC alone ([2]; 10 mM compound): 21%; Reduction of transition enthalpy (in words) ([2]; 10 mM compound, compared to control lipid vesicles): half; Pretransition peak of DPPC (in words) ([2]; 10 mM compound, peak normally at approximately 34° C.): below resolvable limits
[Cl-].[Na+] [NaCl, sodium chloride, reference compound] |  |  |  |  |  |  |  |  |  |  |  |  |  | EC50 [1]: 63 mM and 60 mM; Change in Main Transition ΔTm [2]: +0.8%; Change in Main Transition ΔΔH [2]: +17%; Change in Main Transition ΔΔT(1/2) [2]: −4%; Change in Pretransition ΔH [2]: +103%; Main Transition Tm ([2]; pH 7.4): 41.72 °C; Main Transition ΔH ([2]; pH 7.4): 9.823 kcal/mol; Main Transition ΔT(1/2) ([2]; pH 7.4): 1.53 °C; Pretransition ΔH ([2]; pH 7.4): 0.508 kcal/mol
choline tartarate |  |  |  |  |  |  |  |  |  |  |  | +121.9 cal/mole/ C | −0.03 | Δ Tm [2]: +0.35 C
CC(C)Cc1ccc(C(C)C(=O)[O-])cc1.[Na+] (stereo not drawn) [Ibuprofen sodium salt, ibuprofen sodium salt, reference compound] |  |  | 7.222 | 1.79 | 38.82 °C | 0.375 | −6% | −11% | +12% | −13 |  |  |  | 
C[N+](C)(C)CCO.[Cl-] [CCL, choline chloride, reference compound] |  |  |  |  |  |  |  |  |  |  |  |  |  | EC50 [1]: 34 mM; Change in Main Transition ΔTm [2]: +0.8%; Change in Main Transition ΔΔH [2]: +15%; Change in Main Transition ΔΔT(1/2) [2]: −3%; Change in Pretransition ΔH [2]: +51%; Main Transition Tm ([2]; pH 7.4): 41.70 °C; Main Transition ΔH ([2]; pH 7.4): 9.633 kcal/mol; Main Transition ΔT(1/2) ([2]; pH 7.4): 1.55 °C; Pretransition ΔH ([2]; pH 7.4): 0.378 kcal/mol
2-hydroxyethyl(trimethyl)azanium bis(2-ethylhexyl)phosphate [CBEH] | < 0.3 mM |  | 0.077 | 2.95 | 42.49 °C | 0.066 | +2.5% | −99% | +16% | −82 |  |  |  | Main transition temperature [2, 10]: ~41 °C; Pretransition temperature [2, 10]: ~33 °C; Reduction in main transition enthalpy compared to DPPC in HEPES alone [2, 10]: 99%; Reduction in pretransition enthalpy compared to DPPC in HEPES alone [2, 10]: 82%; Third prominent peak (subtransition) temperature [2, 10]: 27 °C; New peak Tm ([2]; DPPC-CBEH dispersions run starting at 10° C., first heating scan): 21 °C
CNCCC=C1c2ccccc2CCc2ccccc21 [Nortriptyline hydrochloride, nortriptyline hydrochloride, reference compound] |  | shifted to lower temperatures, with notable main peak broadening | 8.078 | 1.41 | 30.66 °C |  | −26% | +8% | +6% | −100 |  |  |  | 
choline formate |  |  |  |  |  |  |  |  |  |  |  | −733 cal/mole/ C | −0.02 | Effect on DPPC main gel-liquid crystal phase transition (in words) [2]: a moderate increase in Tm and a moderate decrease in enthalpy; Δ Tm [2]: +0.31 C
C[N+](C)(C)CCO.O=P([O-])(O)O [CDHP, 2-hydroxyethyl(trimethyl)azanium dihydrogen phosphate] | 20 mM | no statistically significant effect | 7.949 | 1.33 | 41.69 °C | 0.248 | +0.7% | +3% | −6% | −54 | +0.52 C | −76 cal/mole/ C | 0.131 | Log EC50 [1]: 4.31 uM; Log Pow [3]: −3.15
CC(=O)CCC(=O)O [Levulinate] |  | a moderate decrease in Tm, and a large decrease in enthalpy |  |  |  |  |  |  |  |  | −0.21 C | −2155 cal/mole/ C | 0.39 | 
